Assay results taken from the NIST ThermoML archive (doi:10.1016/j.jct.2006.09.012).
Where “and” joins values, the source holds several entries; their conditions need not be identical. Equal values may be shown once.

Settings: Gas, Buoyancy - hydrostatic balance with magnetic suspension - two sinkers

N#N [nitrogen]
Settings | mass density
250 K, 4032 kPa | 55.8107 kg/m3 [middle of 5 runs]
250 K, 7922 kPa | 111.201 kg/m3
250 K, 7922.1 kPa | 111.201 kg/m3
250 K, 11944 kPa | 167.531 kg/m3 and 167.53 kg/m3
250 K, 15945 kPa | 220.078 kg/m3 and 220.076 kg/m3
250 K, 15946 kPa | 220.079 kg/m3
250 K, 19672 kPa | 264.436 kg/m3 [middle of 5 runs]
250 K, 23918 kPa | 309.033 kg/m3 and 309.035 kg/m3 and 309.038 kg/m3
250 K, 23919 kPa | 309.043 kg/m3
250 K, 23920 kPa | 309.056 kg/m3
250 K, 23921 kPa | 309.062 kg/m3
250 K, 27922 kPa | 345.621 kg/m3 [middle of 4 runs]
250 K, 27923 kPa | 345.629 kg/m3 and 345.627 kg/m3
250 K, 31914 kPa | 377.498 kg/m3 and 377.5 kg/m3
250 K, 31915 kPa | 377.505 kg/m3 and 377.504 kg/m3
250 K, 31916 kPa | 377.516 kg/m3 and 377.513 kg/m3
273.16 K, 3969.2 kPa | 49.6242 kg/m3 [middle of 4 runs]
273.16 K, 3969.3 kPa | 49.6242 kg/m3
273.16 K, 6172.5 kPa | 77.4431 kg/m3 and 77.4438 kg/m3 and 77.4433 kg/m3
273.16 K, 6172.6 kPa | 77.4441 kg/m3 and 77.4442 kg/m3
273.16 K, 8165.1 kPa | 102.478 kg/m3 and 102.48 kg/m3
273.16 K, 8165.2 kPa | 102.48 kg/m3 and 102.479 kg/m3
273.16 K, 12168 kPa | 151.567 kg/m3 [middle of 5 runs]
273.16 K, 16376 kPa | 200.13 kg/m3 [middle of 5 runs]
273.16 K, 20308 kPa | 241.736 kg/m3 and 241.739 kg/m3
273.16 K, 20309 kPa | 241.746 kg/m3 and 241.745 kg/m3 and 241.743 kg/m3
273.16 K, 24524 kPa | 281.91 kg/m3
273.16 K, 24525 kPa | 281.913 kg/m3 and 281.915 kg/m3
273.16 K, 24526 kPa | 281.922 kg/m3 and 281.921 kg/m3
273.16 K, 28792 kPa | 318.055 kg/m3
273.16 K, 28793 kPa | 318.057 kg/m3 and 318.058 kg/m3
273.16 K, 28794 kPa | 318.067 kg/m3 and 318.065 kg/m3
273.16 K, 33963 kPa | 356.391 kg/m3
273.16 K, 33964 kPa | 356.402 kg/m3 and 356.397 kg/m3
273.16 K, 33965 kPa | 356.407 kg/m3
273.16 K, 33966 kPa | 356.413 kg/m3
293.14 K, 99.9 kPa | 1.1487 kg/m3 [middle of 4 runs]
293.14 K, 199.8 kPa | 2.2978 kg/m3 and 2.2977 kg/m3 and 2.2976 kg/m3
293.14 K, 299.7 kPa | 3.447 kg/m3 and 3.4472 kg/m3 and 3.4473 kg/m3
293.14 K, 499.5 kPa | 5.7475 kg/m3 and 5.7477 kg/m3 and 5.7476 kg/m3
293.14 K, 749.2 kPa | 8.6261 kg/m3 and 8.626 kg/m3
293.14 K, 749.3 kPa | 8.6261 kg/m3
293.14 K, 999 kPa | 11.5072 kg/m3 [middle of 5 runs]
293.14 K, 1498.5 kPa | 17.2762 kg/m3 [middle of 6 runs]
293.14 K, 1998 kPa | 23.0541 kg/m3 and 23.0539 kg/m3
293.14 K, 2997.1 kPa | 34.6233 kg/m3 and 34.6235 kg/m3 and 34.6236 kg/m3
293.14 K, 3996.1 kPa | 46.1976 kg/m3 [middle of 5 runs]
293.14 K, 4995.1 kPa | 57.7592 kg/m3
293.14 K, 4995.2 kPa | 57.7597 kg/m3 and 57.7599 kg/m3
293.14 K, 5994.2 kPa | 69.2908 kg/m3 and 69.291 kg/m3 and 69.2909 kg/m3
293.14 K, 5994.3 kPa | 69.2914 kg/m3 and 69.2915 kg/m3
293.15 K, 4004.8 kPa | 46.2934 kg/m3 [middle of 6 runs]
293.15 K, 4004.9 kPa | 46.2937 kg/m3
293.15 K, 5964.9 kPa | 68.9512 kg/m3 [middle of 5 runs]
293.15 K, 7948.6 kPa | 91.6869 kg/m3 [middle of 4 runs]
293.15 K, 7948.8 kPa | 91.689 kg/m3 and 91.6881 kg/m3
293.15 K, 11980 kPa | 136.716 kg/m3 [middle of 7 runs]
293.15 K, 15954 kPa | 178.78 kg/m3
293.15 K, 15955 kPa | 178.782 kg/m3 [middle of 7 runs]
293.15 K, 19567 kPa | 214.452 kg/m3 and 214.453 kg/m3
293.15 K, 19568 kPa | 214.457 kg/m3
293.15 K, 24175 kPa | 256.042 kg/m3
293.15 K, 24176 kPa | 256.052 kg/m3 [middle of 4 runs]
293.15 K, 28412 kPa | 290.447 kg/m3 [middle of 4 runs]
293.15 K, 28413 kPa | 290.455 kg/m3 and 290.453 kg/m3
293.15 K, 32144 kPa | 317.902 kg/m3
293.15 K, 32145 kPa | 317.909 kg/m3 and 317.905 kg/m3
293.15 K, 32146 kPa | 317.912 kg/m3
293.15 K, 32147 kPa | 317.922 kg/m3 and 317.917 kg/m3
293.15 K, 32148 kPa | 317.926 kg/m3
320 K, 4775.8 kPa | 50.1489 kg/m3 and 50.1482 kg/m3 and 50.1481 kg/m3
320 K, 4775.9 kPa | 50.1492 kg/m3 and 50.1493 kg/m3 and 50.149 kg/m3
320 K, 10135 kPa | 104.999 kg/m3 and 105.001 kg/m3 and 105.002 kg/m3
320 K, 20210 kPa | 198.799 kg/m3 [middle of 6 runs]
339.98 K, 499.5 kPa | 4.9482 kg/m3 and 4.9481 kg/m3 and 4.948 kg/m3
339.98 K, 999 kPa | 9.8915 kg/m3 and 9.8916 kg/m3
339.98 K, 1998 kPa | 19.7585 kg/m3 and 19.7583 kg/m3 and 19.7584 kg/m3
339.98 K, 3996 kPa | 39.3819 kg/m3 [middle of 4 runs]
339.98 K, 5994.1 kPa | 58.7959 kg/m3 and 58.796 kg/m3
339.99 K, 5081.9 kPa | 49.9596 kg/m3
339.99 K, 5082 kPa | 49.9602 kg/m3 and 49.9596 kg/m3
339.99 K, 5082.1 kPa | 49.9616 kg/m3
339.99 K, 21784 kPa | 198.014 kg/m3
340 K, 5082 kPa | 49.96 kg/m3
340 K, 10840 kPa | 104.588 kg/m3 and 104.589 kg/m3
340 K, 21784 kPa | 198.008 kg/m3 [middle of 5 runs]
340.01 K, 3874.6 kPa | 38.1897 kg/m3 [middle of 6 runs]
340.01 K, 5932.3 kPa | 58.1965 kg/m3 and 58.1955 kg/m3
340.01 K, 5932.4 kPa | 58.1962 kg/m3
340.01 K, 7789.6 kPa | 75.9992 kg/m3
340.01 K, 7789.7 kPa | 76.0004 kg/m3 [middle of 5 runs]
